Data set [1] has as its target Transient receptor potential cation channel subfamily V member 4 (Homo sapiens, UniProt Q9HBA0). In words: Antagonist activity at human TRPV4 assessed as inhibition of 4alpha-PDD-induced activation.
Data set [2] in a line: Antagonist activity at guinea pig TRPV4 assessed as inhibition of 4alpha-PDD-induced activation. On the set-up: species or system Cavia porcellus.
Data set [3] deals with Transient receptor potential cation channel subfamily V member 4 (Rattus norvegicus, UniProt Q9ERZ8). In words: Antagonist activity at rat TRPV4 assessed as inhibition of 4alpha-PDD-induced activation.
Sequence of Transient receptor potential cation channel subfamily V member 4 (Rattus norvegicus, UniProt Q9ERZ8) (Q9ERZ8 whole entry): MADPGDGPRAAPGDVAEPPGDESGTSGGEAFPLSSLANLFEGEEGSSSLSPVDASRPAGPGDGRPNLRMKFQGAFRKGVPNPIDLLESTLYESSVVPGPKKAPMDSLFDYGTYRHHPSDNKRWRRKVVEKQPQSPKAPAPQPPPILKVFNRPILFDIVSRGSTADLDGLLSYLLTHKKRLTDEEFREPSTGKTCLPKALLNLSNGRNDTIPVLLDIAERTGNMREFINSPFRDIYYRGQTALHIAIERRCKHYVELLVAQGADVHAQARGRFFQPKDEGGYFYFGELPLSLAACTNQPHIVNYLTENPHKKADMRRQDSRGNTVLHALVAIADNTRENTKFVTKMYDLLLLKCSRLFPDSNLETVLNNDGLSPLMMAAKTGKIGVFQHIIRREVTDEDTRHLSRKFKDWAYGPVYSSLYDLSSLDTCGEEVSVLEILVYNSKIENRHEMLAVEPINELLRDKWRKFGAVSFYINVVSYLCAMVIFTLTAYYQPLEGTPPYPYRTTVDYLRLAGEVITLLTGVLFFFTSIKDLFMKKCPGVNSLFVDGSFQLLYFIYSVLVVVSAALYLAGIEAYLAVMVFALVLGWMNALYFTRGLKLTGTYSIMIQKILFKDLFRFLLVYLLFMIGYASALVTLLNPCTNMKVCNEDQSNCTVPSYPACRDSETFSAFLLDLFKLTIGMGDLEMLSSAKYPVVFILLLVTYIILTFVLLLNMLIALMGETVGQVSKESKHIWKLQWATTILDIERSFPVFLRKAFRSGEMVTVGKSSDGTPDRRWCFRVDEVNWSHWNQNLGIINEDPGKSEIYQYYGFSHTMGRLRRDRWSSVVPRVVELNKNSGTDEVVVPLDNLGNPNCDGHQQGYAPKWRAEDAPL
Data set [4] can be described thus: Stability in human liver microsomes assessed as parent compound remaining after 30 mins in presence or absence of NADPH. Type of data set: ADME, microsome. The settings on record: read-out: Stability.
The nature of data set [5]: Stability in rat liver microsomes assessed as parent compound remaining after 30 mins in presence or absence of NADPH. Type of data set: ADME, microsome. The settings on record: read-out: Stability.

Each structure is given as a SMILES string.

Sequence of Transient receptor potential cation channel subfamily V member 4 (Homo sapiens, UniProt Q9HBA0) (Q9HBA0 whole entry): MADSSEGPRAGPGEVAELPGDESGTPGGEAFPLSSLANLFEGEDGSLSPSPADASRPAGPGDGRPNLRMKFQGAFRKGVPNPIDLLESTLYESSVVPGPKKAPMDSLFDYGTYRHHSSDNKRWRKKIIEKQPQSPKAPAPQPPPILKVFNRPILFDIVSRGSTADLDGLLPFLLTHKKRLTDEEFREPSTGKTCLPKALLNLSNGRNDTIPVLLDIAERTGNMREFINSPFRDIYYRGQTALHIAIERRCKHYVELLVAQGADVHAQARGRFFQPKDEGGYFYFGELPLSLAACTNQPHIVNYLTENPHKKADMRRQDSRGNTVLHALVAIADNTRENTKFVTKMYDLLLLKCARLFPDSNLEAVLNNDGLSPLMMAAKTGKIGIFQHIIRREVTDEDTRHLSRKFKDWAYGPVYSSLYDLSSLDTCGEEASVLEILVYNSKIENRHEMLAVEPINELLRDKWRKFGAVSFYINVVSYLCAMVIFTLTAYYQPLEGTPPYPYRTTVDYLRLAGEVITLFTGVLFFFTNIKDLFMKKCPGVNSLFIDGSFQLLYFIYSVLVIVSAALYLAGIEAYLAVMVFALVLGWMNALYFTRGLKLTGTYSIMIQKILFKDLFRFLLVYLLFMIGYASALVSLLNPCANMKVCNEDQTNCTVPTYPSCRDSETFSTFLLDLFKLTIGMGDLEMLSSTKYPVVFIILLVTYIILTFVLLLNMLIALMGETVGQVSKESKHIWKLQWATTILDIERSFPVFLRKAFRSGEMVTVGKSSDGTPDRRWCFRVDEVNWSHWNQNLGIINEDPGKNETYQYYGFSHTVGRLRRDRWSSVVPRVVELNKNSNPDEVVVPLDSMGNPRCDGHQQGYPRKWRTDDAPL

Broadly, the IC50 is the concentration needed to halve the response being measured. `CO[C@H]1C[C@H]2CC[C@@H](C1)N2C(=O)c1ccc(Nc2nc(-c3sc(C)nc3C)cs2)nc1`: the half-inhibitory concentration (IC50) in data set [1] turned out to be 2.4 nM.

In the case of `Cc1nc(C)c(-c2csc(Nc3ccc(C(=O)N4[C@@H]5CC[C@H]4C[C@@H](OC(=O)NCCF)C5)cn3)n2)s1`, the IC50 worked out at 6.7 nM in data set [1], 6.2 nM in data set [2] and 290 nM in data set [3].

Turning to `Cc1nc(C)c(-c2csc(Nc3ccc(C(=O)N4C5CNCC4COC5)cn3)n2)s1`, the remaining at 0.5 h in data set [4] is 57.9%; in data set [5] it was 71.5%. Further, the half-maximal inhibitory concentration (IC50) was 3.2 nM in data set [1], 4.3 nM in data set [2] and 100 nM in data set [3].

With `Cc1nc(C)c(-c2csc(Nc3ccc(C(=O)N4[C@@H]5CC[C@H]4C[C@@H](N)C5)cn3)n2)s1`, the IC50 in data set [1] stood at 530 nM.

For the molecule `CCNC(=O)O[C@H]1C[C@H]2CC[C@@H](C1)N2C(=O)c1ccc(Nc2nc(-c3sc(C)nc3C)cs2)nc1`, the IC50 in data set [1] amounted to 1.9 nM.

Consider `Cc1nc(C)c(-c2csc(Nc3ccc(C(=O)N4[C@@H]5CC[C@H]4C[C@@H](CO)C5)cn3)n2)s1`, for which the IC50 in data set [1] was found to be 41 nM.

In the case of `Cc1nc(C)c(-c2csc(Nc3ccc(C(=O)N4[C@@H]5CC[C@H]4C[C@@H](Oc4ncc(C(F)(F)F)cn4)C5)cn3)n2)s1`, the half-maximal inhibitory concentration (IC50) was found to be 4.8 nM in data set [1], 2.7 nM in data set [2] and 120 nM in data set [3].

Turning to `Cc1nc(C)c(-c2csc(Nc3ccc(C(=O)N4[C@@H]5CC[C@H]4C[C@H](O)C5)cn3)n2)s1`, in data set [1], the 50% inhibitory concentration (IC50) was found to be 650 nM.

With `Cc1nc(C)c(-c2csc(Nc3ccc(C(=O)N4[C@@H]5CC[C@H]4C/C(=N/OCCO)C5)cn3)n2)s1`, the remaining at 0.5 h in data set [4] amounted to 84.9%; in data set [5], 74.5%. Also, the 50% inhibitory concentration (IC50) in data set [1] turned out to be 6 nM.

With `COC(=O)N1CC2CCC(C1)N2C(=O)c1ccc(Nc2nc(-c3sc(C)nc3C)cs2)nc1`, the remaining at 0.5 h came to 48.6% in data set [4] and 53% in data set [5]. In addition, the values for the concentration for half-maximal inhibition (IC50) in data set [1], in data set [2] and in data set [3] were 1.7 nM, 2 nM and 53 nM, respectively.

Consider `Cc1nc(C)c(-c2csc(Nc3ccc(C(=O)N4C5CCC4CNC5)cn3)n2)s1`, for which the values for the remaining at 0.5 h in data set [4] and in data set [5] were 64.9% and 63.9%, respectively. Also, the IC50 in data set [1] worked out at 620 nM.

Take `Cc1nc(C)c(-c2csc(Nc3ccc(C(=O)N4[C@@H]5CC[C@H]4C/C(=N/OCCCO)C5)cn3)n2)s1`: the remaining at 0.5 h in data set [4] was found to be 64.5%; in data set [5], 59.1%. The 50% inhibitory concentration (IC50) in data set [1] is 2.9 nM; in data set [2], 3.3 nM; in data set [3], 57 nM.

In the case of `CC(=O)N[C@H]1C[C@H]2CC[C@@H](C1)N2C(=O)c1ccc(Nc2nc(-c3sc(C)nc3C)cs2)nc1`, the 50% inhibitory concentration (IC50) in data set [1] is 80 nM.

`Cc1nc(C)c(-c2csc(Nc3ccc(C(=O)N4C5CCC4CN(c4ncc(Cl)cn4)C5)cn3)n2)s1`: the remaining at 0.5 h came to 76.4% in data set [4] and 68.4% in data set [5]. Further, the IC50 in data set [1] is 0.3 nM; in data set [2] it was 2 nM; in data set [3] it was 16 nM.

For `COC(=O)N1CC2CCCC(C1)N2C(=O)c1ccc(Nc2nc(-c3sc(C)nc3C)cs2)nc1`, the results for the remaining at 0.5 h in data set [4] and in data set [5] were 33.7% and 43.8%, respectively. Also, in data set [1], the half-inhibitory concentration (IC50) stood at 1.8 nM.

Regarding `CC(=O)N1CC2CCC(C1)N2C(=O)c1ccc(Nc2nc(-c3sc(C)nc3C)cs2)nc1`, the results for the remaining at 0.5 h in data set [4] and in data set [5] were 59.4% and 92.1%, respectively. For the same molecule, the half-maximal inhibitory concentration (IC50) in data set [1] was found to be 32 nM; in data set [2], 21 nM; in data set [3], 600 nM.

Regarding `Cc1c(C(=O)Nc2cccc(C(F)(F)F)c2)cc(-c2ccccc2)n1CCCN1CCOCC1`, in data set [1], the IC50 was 57 nM.

`Cc1nc(C)c(-c2csc(Nc3ccc(C(=O)N4[C@@H]5CC[C@H]4C/C(=N/OC4CCN(C)CC4)C5)cn3)n2)s1`: the remaining at 0.5 h stood at 77% in data set [4] and 83.7% in data set [5]. Besides, the results for the concentration for half-maximal inhibition (IC50) in data set [1], in data set [2] and in data set [3] were 4.5 nM, 6.4 nM and 57 nM, respectively.

`CNC(=O)N1CC2CCC(C1)N2C(=O)c1ccc(Nc2nc(-c3sc(C)nc3C)cs2)nc1`: the remaining at 0.5 h in data set [4] was determined as 83.5%; in data set [5] it was 88.5%. Besides, in data set [1], the half-inhibitory concentration (IC50) amounted to 770 nM.

For the molecule `Cc1nc(C)c(-c2csc(Nc3ccc(C(=O)N4[C@@H]5CC[C@H]4C/C(=N/OCC(F)(F)F)C5)cn3)n2)s1`, the remaining at 0.5 h in data set [4] was 47.7%; in data set [5], 50.4%. In addition, the concentration for half-maximal inhibition (IC50) was determined as 0.36 nM in data set [1], 2 nM in data set [2] and 18 nM in data set [3].

Turning to `CO/N=C1\C[C@H]2CC[C@@H](C1)N2C(=O)c1ccc(Nc2nc(-c3sc(C)nc3C)cs2)nc1`, the remaining at 0.5 h in data set [4] came to 79.1%; in data set [5], 12.5%. Also, in data set [1], the IC50 is 1 nM.

In the case of `Cc1nc(C)c(-c2csc(Nc3ccc(C(=O)N4[C@@H]5CC[C@H]4C[C@@H](O)C5)cn3)n2)s1`, the IC50 worked out at 32 nM in data set [1], 33 nM in data set [2] and 1000 nM in data set [3].

As for `COC(=O)N1CCN(C(=O)c2ccc(Nc3nc(-c4sc(C)nc4C)cs3)nc2)CC1`, the remaining at 0.5 h was determined as 94.1% in data set [4] and 77.9% in data set [5]. Moreover, the values for the half-inhibitory concentration (IC50) in data set [1], in data set [2] and in data set [3] were 37 nM, 56 nM and 1100 nM, respectively.

In the case of `Cc1nc(C)c(-c2csc(Nc3ccc(C(=O)N4[C@@H]5CC[C@H]4C[C@@H](OCCO)C5)cn3)n2)s1`, the IC50 in data set [1] is 6.2 nM; in data set [2], 10 nM; in data set [3] it was 200 nM.

Take `Cc1nc(C)c(-c2csc(Nc3ccc(C(=O)N4[C@@H]5CC[C@H]4C/C(=N/O)C5)cn3)n2)s1`: the remaining at 0.5 h in data set [4] was determined as 80.5%; in data set [5], 38.8%. Moreover, the IC50 in data set [1] stood at 8.4 nM.

For the molecule `COC(=O)N1CCN(C(=O)c2ccc(Nc3nc(-c4sc(C)nc4C)cs3)nc2)C(C(F)(F)F)C1` (stereo unspecified), the remaining at 0.5 h in data set [4] stood at 64.1%; in data set [5], 49.2%. In addition, the 50% inhibitory concentration (IC50) in data set [1] stood at 0.57 nM; in data set [2], 2.7 nM; in data set [3] it was 15 nM.

Regarding `Cc1nc(C)c(-c2csc(Nc3ccc(C(=O)N4[C@@H]5CC[C@H]4C/C(=N/OC[C@@H](O)C(F)(F)F)C5)cn3)n2)s1`, the remaining at 0.5 h in data set [4] is 43%; in data set [5], 49.6%. The IC50 in data set [1] stood at 1.1 nM; in data set [2], 2.3 nM; in data set [3] it was 29 nM.

Turning to `Cc1nc(C)c(-c2csc(Nc3ccc(C(=O)N4C5CCC4CN(CC(F)(F)F)C5)cn3)n2)s1`, the values for the remaining at 0.5 h in data set [4] and in data set [5] were 0% and 8.5%, respectively. Besides, the IC50 in data set [1] came out at 2.1 nM.

Regarding `Cc1nc(C)c(-c2csc(Nc3ccc(C(=O)N4[C@@H]5CC[C@H]4CC(=NOCC(C)(C)O)C5)cn3)n2)s1`, the values for the remaining at 0.5 h in data set [4] and in data set [5] were 70% and 75.5%, respectively. Further, the IC50 stood at 4.4 nM in data set [1] and 8.3 nM in data set [2].

As to `Cc1nc(C)c(-c2csc(Nc3ccc(C(=O)N4C5CCC4CN(C4CCCCC4)C5)cn3)n2)s1`, the remaining at 0.5 h in data set [4] amounted to 0.58%; in data set [5], 0%. Moreover, the half-maximal inhibitory concentration (IC50) in data set [1] amounted to 2.8 nM.

Regarding `Cc1nc(C)c(-c2csc(Nc3ccc(C(=O)N4[C@@H]5CC[C@H]4C/C(=N/OCC(N)=O)C5)cn3)n2)s1`, the remaining at 0.5 h in data set [4] worked out at 89%; in data set [5], 84.8%. The half-maximal inhibitory concentration (IC50) in data set [1] was 24 nM.

With `Cc1nc(C)c(-c2csc(Nc3ccc(C(=O)N4[C@@H]5CC[C@H]4C[C@@H](NC(=O)CC(F)(F)F)C5)cn3)n2)s1`, the IC50 in data set [1] came out at 19 nM.
